Literature values in PubChem BioAssay AID1259409 (Chemical Carcinogenesis Research Information System (CCRIS), 2018).

System: rodent chemically induced tumor inhibition, incidence and multiplicity
Test: CCRIS tumor inhibitor studies

Q: What does the source list for `CC(=O)Oc1ccccc1C(=O)O`?
A: tumour outcome (control, treated, inhibition, significance) (Carcinogen: 1,2-DIMETHYLHYDRAZINE DIHYDROCHLORIDE, 306-37-6, Dose [Inhibitor]: 0, 10 MG/KG/D IN 0.2 ML OF 5% SODIUM BICARBONATE FOR 1 WK PRIOR +0 AND 1 WK POST CARCINOGEN DOSE (STUDY DURATION: 36 WK), Route [Inhibitor]: SUBCUTANEOUS, Species: RAT, Strain/Sex: SPRAGUE-DAWLEY/MALE, Target Tissue: Type of Lesion: COLON: ADENOCARCINOMA, Dose [Carcinogen]: 30 MG/KG ONCE, Promoter: NONE USED): 50%, 17%, 66%, p<0.05; tumour outcome (control, treated, inhibition, significance) (Carcinogen: 1,2-DIMETHYLHYDRAZINE DIHYDROCHLORIDE, 306-37-6, Dose [Inhibitor]: 0, 50 MG/KG/D IN 0.6 ML OF 5% SODIUM BICARBONATE BEGINNING 4 WK POST CARCINOGEN DOSE AND CONTINUING FOR DURATION OF STUD, Route [Inhibitor]: SUBCUTANEOUS, Species: RAT, Strain/Sex: SPRAGUE-DAWLEY/MALE, Target Tissue: Type of Lesion: COLON: ADENOCARCINOMA, Dose [Carcinogen]: 30 MG/KG ONCE, Promoter: NONE USED): 42%, 42%, 0%, not significant; tumour outcome (control, treated, inhibition, significance) (Carcinogen: 2-AMINO-1-METHYL-6-PHENYLIMIDAZO[4,5-B]PYRIDINE [105650-23-5], Dose [Inhibitor]: 400 PPM IN DIET FOR 4 WK BEGINNING WK PRIOR TO FIRST CARCINOGEN DOSE (STUDY DURATION: 25 WK), Route [Inhibitor]: ORAL, Species: RAT, Strain/Sex: SPRAGUE-DAWLEY/FEMALE, Target Tissue: Type of Lesion: MAMMARY GLAND: FIBROADENOMA OR DUCTAL CARCINOMA, Dose [Carcinogen]: 85 MG/KG BW 2X/WK FOR 4 WK (STUDY DURATION: 25 WK), Promoter: NONE): 67.7%, 50.0%, 26%, not significant; tumour outcome (control, treated, inhibition, significance) (Carcinogen: 2-AMINO-1-METHYL-6-PHENYLIMIDAZO[4,5-B]PYRIDINE, 105650-23-5, Dose [Inhibitor]: 0, 400 PPM IN HIGH FAT DIET FOR 4 WK BEGINNING 1 WK PRIOR TO CARCINOGEN TREATMENT (STUDY DURATION: 25 WK), Route [Inhibitor]: ORAL, Species: RAT, Strain/Sex: SPRAGUE-DAWLEY/FEMALE, Target Tissue: Type of Lesion: MAMMARY GLAND: CARCINOMA, Dose [Carcinogen]: 85 MG/KG BW IN CORN OIL 8 TIMES IN 10 D, Promoter: NONE USED): 21/31 (68%), 14/30 (47%), 31%, not significant; tumour outcome (control, treated, inhibition, significance) (Carcinogen: 2-AMINO-1-METHYL-6-PHENYLIMIDAZO[4,5-B]PYRIDINE, 105650-23-5, Dose [Inhibitor]: 0, 400 PPM IN HIGH FAT DIET FOR 4 WK BEGINNING 1 WK PRIOR TO CARCINOGEN TREATMENT (STUDY DURATION: 25 WK), Route [Inhibitor]: ORAL, Species: RAT, Strain/Sex: SPRAGUE-DAWLEY/FEMALE, Target Tissue: Type of Lesion: MAMMARY GLAND: FIBROADENOMA, Dose [Carcinogen]: 85 MG/KG BW IN CORN OIL 8 TIMES IN 10 D, Promoter: NONE USED): 3/31 (10%), 2/30 (7%), 30%, not significant; tumour outcome (control, treated, inhibition, significance) (Carcinogen: 4-(METHYLNITROSAMINO)-1-(3-PYRIDYL)-1-BUTANONE, 64091-91-4, Dose [Inhibitor]: 0, 32 MG/KG BW BUFFERED ASPIRIN IN DIET FOR DURATION OF STUDY BEGINNING 2 WK PRIOR TO CARCINOGEN TREATMENT (STUDY DURATI, Route [Inhibitor]: ORAL, Species: MOUSE, Strain/Sex: STRAIN-A/FEMALE, Target Tissue: Type of Lesion: LUNG: TUMOR, Dose [Carcinogen]: 9.1 MG/MOUSE (TOTAL DOSE) ADMINISTERED IN DRINKING WATER OVER 7 WK, Promoter: NONE USED): 23/24 (96%), 15/15 (100%), -4%, not significant; tumour outcome (control, treated, inhibition, significance) (Carcinogen: 4-(METHYLNITROSAMINO)-1-(3-PYRIDYL)-1-BUTANONE, 64091-91-4, Dose [Inhibitor]: 0, 32 MG/KG BW NON-BUFFERED ASPIRIN IN DIET FOR DURATION OF STUDY BEGINNING 2 WK PRIOR TO CARCINOGEN TREATMENT (STUDY DU, Route [Inhibitor]: ORAL, Species: MOUSE, Strain/Sex: STRAIN-A/FEMALE, Target Tissue: Type of Lesion: LUNG: TUMOR, Dose [Carcinogen]: 9.1 MG/MOUSE (TOTAL DOSE) ADMINISTERED IN DRINKING WATER OVER 7 WK, Promoter: NONE USED): 23/24 (96%), 14/14 (100%), -4%, not significant; tumour outcome (control, treated, inhibition, significance) (Carcinogen: 4-(METHYLNITROSAMINO)-1-(3-PYRIDYL)-1-BUTANONE, 64091-91-4, Dose [Inhibitor]: 0, 35 MG/KG BW IN DIET FOR DURATION OF STUDY BEGINNING 2 WK PRIOR TO CARCINOGEN TREATMENT (STUDY DURATION: 25 WK), Route [Inhibitor]: ORAL, Species: MOUSE, Strain/Sex: STRAIN-A/FEMALE, Target Tissue: Type of Lesion: LUNG: TUMOR, Dose [Carcinogen]: 9.1 MG/MOUSE (TOTAL DOSE) ADMINISTERED IN DRINKING WATER OVER 7 WK, Promoter: NONE USED): 23/24 (96%), 14/15 (93%), 3%, not significant; tumour outcome (control, treated, inhibition, significance) (Carcinogen: 4-(METHYLNITROSAMINO)-1-(3-PYRIDYL)-1-BUTANONE, 64091-91-4, Dose [Inhibitor]: 0, 73 MMOL/KG BW/D IN DIET FOR DURATION OF STUDY BEGINNING 2 WK PRIOR TO CARCINOGEN TREATMENT (STUDY DURATION: 25 WK), Route [Inhibitor]: ORAL, Species: MOUSE, Strain/Sex: STRAIN-A/FEMALE, Target Tissue: Type of Lesion: LUNG: TUMOR, Dose [Carcinogen]: 2.2 MMOL/KG BW (TOTAL DOSE) ADMINISTERED IN DRINKING WATER FOR 7 WK, Promoter: NONE USED): 29/29 (100%), 25/25 (100%), 0%, not significant; tumour outcome (control, treated, inhibition, significance) (Carcinogen: 4-(METHYLNITROSAMINO)-1-(3-PYRIDYL)-1-BUTANONE, 64091-91-4, Dose [Inhibitor]: 0, 147 MMOL/KG BW/D IN DIETS FOR DURATION OF STUDY BEGINNING 2 WK PRIOR TO CARCINOGEN TREATMENT (STUDY DURATION: 25 WK), Route [Inhibitor]: ORAL, Species: MOUSE, Strain/Sex: STRAIN-A/FEMALE, Target Tissue: Type of Lesion: LUNG:TUMOR, Dose [Carcinogen]: 2.2 MMOL/KG BW (TOTAL DOSE) ADMINISTERED IN DRINKING WATER FOR 7 WK, Promoter: NONE USED): 29/29 (100%), 24/24 (100%), 0%, not significant; tumour outcome (control, treated, inhibition, significance) (Carcinogen: 4-(METHYLNITROSAMINO)-1-(3-PYRIDYL)-1-BUTANONE, 64091-91-4, Dose [Inhibitor]: 0, 294 MG/KG DIET FOR DURATION OF STUDY BEGINNING 2 WK PRIOR TO CARCINOGEN TREATMENT (STUDY DURATION: 25 WK), Route [Inhibitor]: ORAL, Species: MOUSE, Strain/Sex: STRAIN-A/FEMALE, Target Tissue: Type of Lesion: LUNG: TUMOR, Dose [Carcinogen]: 9.1 MG/MOUSE IN DRINKING WATER FOR 7 WK, Promoter: NONE USED): 29/29 (100%), 24/24 (100%), 0%, not significant; tumour outcome (control, treated, inhibition, significance) (Carcinogen: 4-(METHYLNITROSAMINO)-1-(3-PYRIDYL)-1-BUTANONE, 64091-91-4, Dose [Inhibitor]: 0, 294 MMOL/KG BW/D IN DIET FOR DURATION OF STUDY BEGINNING 2 WK PRIOR TO CARCINOGEN TREATMENT (STUDY DURATION: 25 WK), Route [Inhibitor]: ORAL, Species: MOUSE, Strain/Sex: STRAIN-A/FEMALE, Target Tissue: Type of Lesion: LUNG: TUMOR, Dose [Carcinogen]: 2.2 MMOL/KG BW (TOTAL DOSE) ADMINISTERED IN DRINKING WATER FOR 7 WK, Promoter: NONE USED): 29/29 (100%), 24/24 (100%), 0%, not significant; tumour outcome (control, treated, inhibition, significance) (Carcinogen: 4-(METHYLNITROSAMINO)-1-(3-PYRIDYL)-1-BUTANONE, 64091-91-4, Dose [Inhibitor]: 0, 588 MMOL/KG BW/D IN DIET FOR DURATION OF STUDY BEGINNING 2 WK PRIOR TO CARCINOGEN TREATMENT (STUDY DURATION: 25 WK), Route [Inhibitor]: ORAL, Species: MOUSE, Strain/Sex: STRAIN-A/FEMALE, Target Tissue: Type of Lesion: LUNG: TUMOR, Dose [Carcinogen]: 2.2 MMOL/KG BW (TOTAL DOSE) ADMINISTERED IN DRINKING WATER FOR 7 WK, Promoter: NONE USED): 29/29 (100%), 24/24 (100%), 0%, not significant; tumour outcome (control, treated, inhibition, significance) (Carcinogen: 7,12-DIMETHYLBENZ[A]ANTHRACENE, 57-97-6, Dose [Inhibitor]: 0.6% NEUTRALIZED WITH 12 MG SODIUM CARBONATE DAILY (STUDY DURATION: 14 WK), Route [Inhibitor]: ORAL, Species: HAMSTER, Strain/Sex: SYRIAN/FEMALE, MALE, Target Tissue: Type of Lesion: BUCCAL CELLS: EPIDERMOID TUMORS, Dose [Carcinogen]: 0.5% SOLUTION IN MINERAL OIL 3/WK FOR UP TO 14 WK, Promoter: NONE USED): 6.4%, 4.8%, 25%, p<0.1; tumour outcome (control, treated, inhibition, significance) (Carcinogen: AZOXYMETHANE, 25843-45-2, Dose [Inhibitor]: 0, 200 PPM IN DIET BEGINNING 2 WK PRIOR TO CARCINOGEN TREATMENT AND CONTINUING FOR 52 WK (STUDY DURATION: 54 WK), Route [Inhibitor]: ORAL, Species: RAT, Strain/Sex: F344/MALE, Target Tissue: Type of Lesion: COLON: ADENOCARCINOMA, Dose [Carcinogen]: 15 MG/KG BW 1/WK FOR 2 WK, Promoter: NONE USED): 78%, 53%, 32%, p<0.05; tumour outcome (control, treated, inhibition, significance) (Carcinogen: AZOXYMETHANE, 25843-45-2, Dose [Inhibitor]: 0, 250 PPM IN DIET FOR 13 WK BEGINNING 36 WK POST LAST CARCINOGEN DOSE (STUDY DURATION: 49 WK), Route [Inhibitor]: ORAL, Species: RAT, Strain/Sex: F344/MALE, Target Tissue: Type of Lesion: COLON: ADENOMA, Dose [Carcinogen]: 12 MG/KG BW IN 0.9% SALINE TWICE, Promoter: CHOLIC ACID, 81-25-4): 81%, 94%, -16%, not significant; tumour outcome (control, treated, inhibition, significance) (Carcinogen: AZOXYMETHANE, 25843-45-2, Dose [Inhibitor]: 0, 250 PPM IN DIET FOR 13 WK BEGINNING 36 WK POST LAST CARCINOGEN DOSE (STUDY DURATION: 49 WK), Route [Inhibitor]: ORAL, Species: RAT, Strain/Sex: F344/MALE, Target Tissue: Type of Lesion: SMALL INTESTINE: ADENOCARCINOMA, Dose [Carcinogen]: 12 MG/KG BW IN 0.9% SALINE TWICE, Promoter: CHOLIC ACID, 81-25-4): 23%, 19%, 17%, not significant; tumour outcome (control, treated, inhibition, significance) (Carcinogen: AZOXYMETHANE, 25843-45-2, Dose [Inhibitor]: 0, 250 PPM IN DIET FOR 13 WK BEGINNING 36 WK POST LAST CARCINOGEN DOSE (STUDY DURATION: 49 WK), Route [Inhibitor]: ORAL, Species: RAT, Strain/Sex: F344/MALE, Target Tissue: Type of Lesion: SMALL INTESTINE: ADENOMA, Dose [Carcinogen]: 12 MG/KG BW IN 0.9% SALINE TWICE, Promoter: CHOLIC ACID, 81-25-4): 17%, 47%, -176%, p<0.05
